From paper PMC2891242 (Bioorganic & medicinal chemistry, 2009)
Entries after “also recorded” stand apart in the source; their conditions may differ. Marks after values point to notes of the source that are not given here. Blank lines part the entries; values can stand above or below the compound they belong to.

Tests used:
MDR1 = assay: MDR1-MDCK permeability; format: in vitro ADME; conditions: dog, MDCK-MDR1, pH 7.4
GluR1 = GluR1 (Rattus norvegicus, UniProt P19490); assay: Two electrode voltage clamp, homomeric GluR1 AMPA receptors in Xenopus oocytes; format: cell-based
GluR6 = GluR6 (Rattus norvegicus, UniProt P42260); format: cell-based
human NR1/NR2B = human NR1/NR2B (Homo sapiens, UniProt Q05586+Q13224); assay: Two electrode voltage clamp concentration-effect curve, human NR1/NR2B; format: cell-based
[1] = molecular target: human ether-a-go-go potassium channel (hERG) (Homo sapiens, UniProt Q12809); assay: [3H]astemizole displacement, hERG expressed in HEK293 cells; format: binding
α1-adrenergic receptor = assay: [3H]prazosin displacement from brain membranes; format: binding, Wistar rat; conditions: for α1-Adrenergic (% displacement at 3 μM): 3 μM test compound, 0.25 nM [3H]prazosin, duplicate; for α1-adrenergic binding: displacement of ligand at 3 μM
rat NR1/NR2B = rat NR1/NR2B (Rattus norvegicus, UniProt P35439+Q00960); assay: Two electrode voltage clamp, recombinant NR1/NR2B in Xenopus oocytes; format: cell-based; conditions: n = 5
NR1/NR2B(ΔATD) = NR1/NR2B(ΔATD) (Rattus norvegicus, UniProt Q00960); assay: Two electrode voltage clamp, amino terminal domain deletion mutant NR1/NR2B; format: cell-based; conditions: maximal glutamate and glycine
[2] = tested on: voltage-gated Na+ or K+ currents; format: cell-based, rat; conditions: 3 μM; cultured cortical neurons; Na+ at −10 mV, K+ at +50 mV

human ether-a-go-go potassium channel (hERG), sequence (Q12809 whole entry): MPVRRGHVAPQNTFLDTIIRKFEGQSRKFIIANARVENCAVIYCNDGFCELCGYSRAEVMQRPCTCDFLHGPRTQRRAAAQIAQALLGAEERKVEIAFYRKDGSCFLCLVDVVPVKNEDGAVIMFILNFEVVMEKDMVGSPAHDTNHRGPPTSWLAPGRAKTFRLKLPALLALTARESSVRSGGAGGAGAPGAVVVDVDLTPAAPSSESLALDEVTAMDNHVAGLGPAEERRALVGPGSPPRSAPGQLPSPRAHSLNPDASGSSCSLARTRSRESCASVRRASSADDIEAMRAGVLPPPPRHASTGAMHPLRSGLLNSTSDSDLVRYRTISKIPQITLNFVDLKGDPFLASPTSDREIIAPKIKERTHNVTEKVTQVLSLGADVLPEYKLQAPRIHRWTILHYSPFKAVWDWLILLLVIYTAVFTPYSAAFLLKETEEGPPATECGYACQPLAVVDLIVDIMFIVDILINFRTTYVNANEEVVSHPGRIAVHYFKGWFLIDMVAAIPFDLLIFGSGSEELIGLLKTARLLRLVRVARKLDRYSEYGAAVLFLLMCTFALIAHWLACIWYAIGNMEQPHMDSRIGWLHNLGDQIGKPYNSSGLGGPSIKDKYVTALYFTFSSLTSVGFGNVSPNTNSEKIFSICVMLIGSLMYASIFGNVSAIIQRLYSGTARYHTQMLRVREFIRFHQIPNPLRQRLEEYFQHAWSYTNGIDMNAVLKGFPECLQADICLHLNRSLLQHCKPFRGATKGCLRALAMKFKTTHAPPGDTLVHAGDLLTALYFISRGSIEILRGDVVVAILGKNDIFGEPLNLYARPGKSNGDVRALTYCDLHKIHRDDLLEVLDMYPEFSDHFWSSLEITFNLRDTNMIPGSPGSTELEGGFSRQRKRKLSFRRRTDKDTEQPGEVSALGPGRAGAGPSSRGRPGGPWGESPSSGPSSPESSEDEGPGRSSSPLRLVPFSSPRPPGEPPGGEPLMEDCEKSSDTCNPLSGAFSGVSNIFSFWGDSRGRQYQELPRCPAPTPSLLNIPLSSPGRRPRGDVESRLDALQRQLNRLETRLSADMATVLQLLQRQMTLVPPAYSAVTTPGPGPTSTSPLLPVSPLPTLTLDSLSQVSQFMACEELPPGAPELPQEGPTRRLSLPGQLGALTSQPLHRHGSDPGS
GluR1, sequence (P19490 19-907): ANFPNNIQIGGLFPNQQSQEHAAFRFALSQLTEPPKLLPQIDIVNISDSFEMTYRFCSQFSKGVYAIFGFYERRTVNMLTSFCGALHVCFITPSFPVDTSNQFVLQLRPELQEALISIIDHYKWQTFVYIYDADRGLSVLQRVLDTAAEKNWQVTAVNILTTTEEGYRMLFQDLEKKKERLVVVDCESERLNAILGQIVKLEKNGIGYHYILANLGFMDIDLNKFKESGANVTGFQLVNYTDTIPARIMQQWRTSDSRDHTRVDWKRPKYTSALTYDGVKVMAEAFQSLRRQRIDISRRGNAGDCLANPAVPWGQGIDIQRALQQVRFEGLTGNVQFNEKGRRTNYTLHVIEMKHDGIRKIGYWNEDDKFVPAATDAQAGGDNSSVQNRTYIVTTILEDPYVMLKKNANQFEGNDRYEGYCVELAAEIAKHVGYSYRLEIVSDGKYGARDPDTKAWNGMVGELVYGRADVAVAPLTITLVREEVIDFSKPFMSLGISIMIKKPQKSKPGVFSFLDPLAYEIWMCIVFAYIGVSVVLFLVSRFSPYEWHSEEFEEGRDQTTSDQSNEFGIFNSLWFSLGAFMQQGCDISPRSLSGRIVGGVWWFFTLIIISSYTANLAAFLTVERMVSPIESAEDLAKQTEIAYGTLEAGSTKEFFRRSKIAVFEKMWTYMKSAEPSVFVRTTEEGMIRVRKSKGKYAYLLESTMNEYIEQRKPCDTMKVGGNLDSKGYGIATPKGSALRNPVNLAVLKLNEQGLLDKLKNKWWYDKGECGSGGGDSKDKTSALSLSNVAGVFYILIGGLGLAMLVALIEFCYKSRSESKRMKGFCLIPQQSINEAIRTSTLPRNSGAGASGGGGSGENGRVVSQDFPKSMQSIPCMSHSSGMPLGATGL
GluR6, sequence (P42260 32-908): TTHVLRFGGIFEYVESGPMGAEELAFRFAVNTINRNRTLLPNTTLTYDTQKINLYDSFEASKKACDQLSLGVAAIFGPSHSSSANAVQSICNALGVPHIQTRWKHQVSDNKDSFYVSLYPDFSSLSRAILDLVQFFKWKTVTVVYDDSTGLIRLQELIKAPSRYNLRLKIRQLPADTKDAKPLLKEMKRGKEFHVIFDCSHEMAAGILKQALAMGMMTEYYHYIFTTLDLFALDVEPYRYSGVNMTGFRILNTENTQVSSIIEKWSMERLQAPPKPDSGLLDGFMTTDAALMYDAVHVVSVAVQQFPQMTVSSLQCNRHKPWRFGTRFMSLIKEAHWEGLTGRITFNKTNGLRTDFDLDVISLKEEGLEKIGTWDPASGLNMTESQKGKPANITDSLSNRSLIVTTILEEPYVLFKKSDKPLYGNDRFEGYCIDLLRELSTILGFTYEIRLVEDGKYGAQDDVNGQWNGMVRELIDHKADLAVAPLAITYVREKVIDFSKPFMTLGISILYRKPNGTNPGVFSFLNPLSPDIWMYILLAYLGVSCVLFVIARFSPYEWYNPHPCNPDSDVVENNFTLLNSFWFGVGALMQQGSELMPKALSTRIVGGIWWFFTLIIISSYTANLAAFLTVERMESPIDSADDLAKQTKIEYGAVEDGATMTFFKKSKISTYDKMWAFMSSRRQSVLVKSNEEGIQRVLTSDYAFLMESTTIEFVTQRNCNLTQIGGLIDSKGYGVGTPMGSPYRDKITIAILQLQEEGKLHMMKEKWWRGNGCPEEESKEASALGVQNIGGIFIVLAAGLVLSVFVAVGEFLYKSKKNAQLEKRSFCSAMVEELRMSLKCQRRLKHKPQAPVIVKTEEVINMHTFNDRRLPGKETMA
human NR1/NR2B, sequence (Q13224 27-1484, other chains not shown): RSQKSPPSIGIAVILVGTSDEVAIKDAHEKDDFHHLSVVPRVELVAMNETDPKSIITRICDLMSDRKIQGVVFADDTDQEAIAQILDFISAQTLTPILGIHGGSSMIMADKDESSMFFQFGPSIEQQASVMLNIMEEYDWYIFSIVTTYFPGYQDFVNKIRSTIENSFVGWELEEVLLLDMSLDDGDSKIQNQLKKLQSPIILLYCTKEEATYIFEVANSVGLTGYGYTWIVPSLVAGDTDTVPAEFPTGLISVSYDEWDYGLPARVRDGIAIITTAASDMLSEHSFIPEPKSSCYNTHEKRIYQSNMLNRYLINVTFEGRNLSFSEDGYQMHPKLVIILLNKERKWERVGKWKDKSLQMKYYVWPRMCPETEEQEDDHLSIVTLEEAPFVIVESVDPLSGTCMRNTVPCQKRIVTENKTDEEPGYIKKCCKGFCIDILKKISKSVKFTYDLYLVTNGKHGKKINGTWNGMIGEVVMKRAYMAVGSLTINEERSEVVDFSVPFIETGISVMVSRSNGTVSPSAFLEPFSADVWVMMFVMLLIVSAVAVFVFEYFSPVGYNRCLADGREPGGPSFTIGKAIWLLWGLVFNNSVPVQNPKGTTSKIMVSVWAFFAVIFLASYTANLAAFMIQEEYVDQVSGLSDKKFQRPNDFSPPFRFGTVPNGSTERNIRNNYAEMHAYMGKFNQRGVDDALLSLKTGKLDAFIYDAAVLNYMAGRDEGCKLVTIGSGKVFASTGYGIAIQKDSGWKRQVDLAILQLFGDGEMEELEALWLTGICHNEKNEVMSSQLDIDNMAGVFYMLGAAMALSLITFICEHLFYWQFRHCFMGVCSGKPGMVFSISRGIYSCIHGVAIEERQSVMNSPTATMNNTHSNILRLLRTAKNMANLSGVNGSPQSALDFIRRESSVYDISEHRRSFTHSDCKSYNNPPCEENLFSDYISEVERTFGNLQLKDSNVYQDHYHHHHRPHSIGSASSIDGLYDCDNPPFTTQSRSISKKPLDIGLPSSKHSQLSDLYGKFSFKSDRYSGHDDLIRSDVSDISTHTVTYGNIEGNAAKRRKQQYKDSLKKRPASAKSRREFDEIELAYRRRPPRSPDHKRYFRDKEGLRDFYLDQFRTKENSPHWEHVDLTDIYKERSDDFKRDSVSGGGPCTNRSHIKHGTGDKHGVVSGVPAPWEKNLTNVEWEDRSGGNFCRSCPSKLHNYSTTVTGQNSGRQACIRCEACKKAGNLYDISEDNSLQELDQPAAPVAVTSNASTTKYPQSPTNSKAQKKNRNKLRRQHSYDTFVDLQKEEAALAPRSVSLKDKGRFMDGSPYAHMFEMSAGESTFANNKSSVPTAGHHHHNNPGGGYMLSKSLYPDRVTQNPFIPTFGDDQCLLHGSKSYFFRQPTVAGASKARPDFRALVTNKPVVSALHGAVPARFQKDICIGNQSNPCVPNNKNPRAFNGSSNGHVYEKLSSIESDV

SMILES: CS(=O)(=O)Nc1ccc(CCC(=O)NNC(=O)Cc2ccc(Cl)c(Cl)c2)cc1 [Compound 16, N’-(2-(3,4-Dichlorophenyl)acetyl)-3-(4-(methylsulfonamido)phenyl)propanehydrazide]
- remaining activity at 3 µM (GluR1; read-out: GluR1 % response): 101 ± 0.5%
- remaining activity at 3 µM (GluR6; read-out: GluR6 % response): 97 ± 1%
- IC50 (human NR1/NR2B): 5.75 µM

SMILES: CS(=O)(=O)Nc1ccc(CCC(=O)NC/C=C/c2ccc(Cl)c(Cl)c2)cc1 [Compound 50, N-(3,4-Dichlorocinnamyl)-3-(4-(methylsulfonamido)-phenyl)propanamide]
- hERG (% displacement) at 3 μM ([1]; 3 μM test compound, 1.5 nM [3H]-astemizole): 47 ^* %
- α1-adrenergic binding (α1-adrenergic receptor): without actions

SMILES: CS(=O)(=O)Nc1ccc(CCC(=O)NNC(=S)Nc2ccc(Cl)c(Cl)c2)cc1 [Compound 14, 4-(3,4-Dichlorophenyl)-1-(3-(4-(methylsulfonamido)-phenyl)propanoyl)thiosemicarbazide]
- α1-Adrenergic (% displacement at 3 μM) (α1-adrenergic receptor): <1%

SMILES: CS(=O)(=O)Nc1ccc(OCC(=O)NCCNc2ccc(Cl)c(Cl)c2)cc1 [Compound 52, N-(2-(3,4-Dichlorophenylamino)ethyl)-2-(4-(meth-ylsulfonamido)phenoxy)acetamide]
- voltage dependence of inhibition (rat NR1/NR2B): voltage-independent
- effect on recombinant AMPA (GluR1) receptors (GluR1; 3 μM): no detectable effects
- effect on recombinant kainate receptors (GluR6) (GluR6; 3 μM): no detectable effects
- Ki [1]: ~12 µM
- hERG binding [1]: minimal
- α1-Adrenergic (% displacement at 3 μM) (α1-adrenergic receptor): <1%
- α1-adrenergic binding (α1-adrenergic receptor): neither amide 49 or 52 showed any α1-adrenergic binding; also recorded: minimal
- effect on current response of NR1/NR2B(ΔATD) (NR1/NR2B(ΔATD)): virtually no effect
- effect on voltage-gated Na+ or K+ currents [2]: no detectable effects

SMILES: CS(=O)(=O)Nc1ccc(CCC(=O)NCCNc2ccc(Cl)c(Cl)c2)cc1 [Compound 49, N-(2-(3,4-Dichlorophenylamino)ethyl)-3-(4-(methylsulfonamido)phenyl)propanamide]
- α1-adrenergic binding (α1-adrenergic receptor): neither amide 49 or 52 showed any α1-adrenergic binding

Continued, in another order:

- Papp A→B at 2 h, 5 μM (MDR1): 4.8 ×10⁻⁶ cm/s
SMILES: CS(=O)(=O)Nc1ccc(OCC(=O)N2CCN(c3ccc(Cl)c(Cl)c3)CC2)cc1 [Compound 57, N-(4-(2-(4-(3,4-Dichlorophenyl)piperazin-1-yl)-2-oxoethoxy)phenyl)methanesulfonamide]

- α1-Adrenergic (% displacement at 3 μM) (α1-adrenergic receptor): <1%
- α1-adrenergic binding (α1-adrenergic receptor): negligible
SMILES: CS(=O)(=O)Nc1ccc(OCC(=O)NCCCc2ccc(Cl)c(Cl)c2)cc1 [Compound 54, N-(3-(3,4-Dichlorophenyl)propyl)-2-(4-(methylsulfonamido)phenoxy)acetamide]
- hERG binding [1]: negligible

- α1-Adrenergic (% displacement at 3 μM) (α1-adrenergic receptor): <1%
- α1-adrenergic binding (α1-adrenergic receptor): negligible
SMILES: CS(=O)(=O)Nc1ccc(CCCN2CCN(c3ccc(Cl)c(Cl)c3)C2=O)cc1 [Compound 70, N-(4-(3-(3-(3,4-Dichlorophenyl)-2-oxoimidazolidin-1-yl)propyl)phenyl)methanesulfonamide]

- α1-adrenergic binding (α1-adrenergic receptor): negligible
SMILES: CS(=O)(=O)Nc1ccc(OCCN2CCN(c3ccc(Cl)c(Cl)c3)C2=O)cc1 [Compound 71, N-(4-(2-(3-(3,4-Dichlorophenyl)-2-oxoimidazolidin-1-yl)ethoxy)phenyl)methanesulfonamide]

- IC50 (human NR1/NR2B): ~1 µM
SMILES: CS(=O)(=O)Nc1ccc(OCCNCC(=O)Nc2ccc(Cl)c(Cl)c2)cc1 [Compound 67, N-(3,4-Dichlorophenyl)-2-(2-(4-(methylsulfonamido)-phenoxy)ethylamino) acetamide]
